Test results published in patent US20120220562A1, “Anti-Viral Compounds” (ABBOTT LABAORATORIES, priority 2011, published 2012).

These compounds were tested on HCV 1b-Con1 replicon (assay: HCV 1b-Con1 replicon assay in the presence of 5% FBS). Conditions: Hepatitis C virus.
Type: cell-based

Compound | EC50 [nM]
COC(=O)N[C@H](C(=O)N1CCC[C@H]1c1nc2cc([C@H]3CC[C@H](c4ccc5[nH]c([C@@H]6CCCN6C(=O)[C@@H](NC(=O)OC)C6Cc7ccccc7C6)nc5c4)N3c3cc(F)c(N4CCC(c5ccccc5)CC4)c(F)c3)ccc2[nH]1)C1Cc2ccccc2C1 [Example 3.27, dimethyl ({(2R,5R)-1-[3,5-difluoro-4-(4-phenylpiperidin-1-yl)phenyl]pyrrolidine-2,5-diyl}bis{1H-benzimidazole-5,2-diyl(2S)pyrrolidine-2,1-diyl[(1S)-1-(2,3-dihydro-1H-inden-2-yl)-2-oxoethane-2,1-diyl]})biscarbamate] | < 0.1
COC(=O)N[C@H](C(=O)N1[C@H](c2nc3cc([C@H]4CC[C@H](c5ccc6[nH]c([C@@H]7C[C@@H]8CCC[C@@H]8N7C(=O)[C@@H](NC(=O)OC)C(C)C)nc6c5)N4c4cc(F)c(N5CCC(c6ccccc6)CC5)c(F)c4)ccc3[nH]2)C[C@@H]2CCC[C@@H]21)C(C)C [Example 3.28, methyl {(2S)-1-[(2S,3aS,6aS)-2-{5-[(2R,5R)-1-[3,5-difluoro-4-(4-phenylpiperidin-1-yl)phenyl]-5-{2-[(2S,3aS,6aS)-1-{(2S)-2-[(methoxycarbonyl)amino]-3-methylbutanoyl}octahydrocyclopenta[b]pyrrol-2-yl]-1H-benzimidazol-5-yl}pyrrolidin-2-yl]-1H-benzimidazol-2-yl}hexahydrocyclopenta[b]pyrrol-1(2H)-yl]-3-methyl-1-oxobutan-2-yl}carbamate] | < 0.1
CCC(CC)C(NC(=O)OC)C(=O)N1CCC[C@H]1c1nc2cc([C@H]3CC[C@H](c4ccc5[nH]c([C@@H]6CCCN6C(=O)C(NC(=O)OC)C(CC)CC)nc5c4)N3c3cc(F)c(N4CCC(c5ccccc5)CC4)c(F)c3)ccc2[nH]1 (stereo partly drawn) [Example 3.29, methyl {1-[(2S)-2-{5-[(2R,5R)-1-[3,5-difluoro-4-(4-phenylpiperidin-1-yl)phenyl]-5-{2-[(2S)-1-{3-ethyl-2-[(methoxycarbonyl)amino]pentanoyl}pyrrolidin-2-yl]-1H-benzimidazol-5-yl}pyrrolidin-2-yl]-1H-benzimidazol-2-yl}pyrrolidin-1-yl]-3-ethyl-1-oxopentan-2-yl}carbamate] | < 0.1
COC(=O)N[C@H](C(=O)N1[C@H](c2nc3cc([C@H]4CC[C@H](c5ccc6[nH]c([C@@H]7C[C@@H]8CCC[C@@H]8N7C(=O)[C@@H](NC(=O)OC)C7CCCC7)nc6c5)N4c4cc(F)c(N5CCCCC5)c(F)c4)ccc3[nH]2)C[C@@H]2CCC[C@@H]21)C1CCCC1 [Example 3.30, dimethyl ({(2R,5R)-1-[3,5-difluoro-4-(piperidin-1-yl)phenyl]pyrrolidine-2,5-diyl}bis{1H-benzimidazole-5,2-diyl(2S,3aS,6aS)hexahydrocyclopenta[b]pyrrole-2,1(2H)-diyl[(1S)-1-cyclopentyl-2-oxoethane-2,1-diyl]})biscarbamate] | < 0.1
O=C([C@@H]1CCCO1)N1CCC[C@H]1c1nc2cc([C@H]3CC[C@H](c4ccc5[nH]c([C@@H]6CCCN6C(=O)[C@@H]6CCCO6)nc5c4)N3c3cc(F)c(N4CCC(c5ccccc5)CC4)c(F)c3)ccc2[nH]1 [Example 3.31, ({(2R,5R)-1-[3,5-difluoro-4-(4-phenylpiperidin-1-yl)phenyl]pyrrolidine-2,5-diyl}bis[1H-benzimidazole-5,2-diyl(2S)pyrrolidine-2,1-diyl])bis[(2S)-tetrahydrofuran-2-ylmethanone]] | < 0.1
COC(=O)N[C@H](C(=O)N1[C@H](c2nc3cc([C@H]4CC[C@H](c5ccc6[nH]c([C@@H]7C[C@@H]8CCC[C@@H]8N7C(=O)[C@@H](NC(=O)OC)C7CCOCC7)nc6c5)N4c4cc(F)c(N5CCCCC5)c(F)c4)ccc3[nH]2)C[C@@H]2CCC[C@@H]21)C1CCOCC1 [Example 3.32, dimethyl ({(2R,5R)-1-[3,5-difluoro-4-(piperidin-1-yl)phenyl]pyrrolidine-2,5-diyl}bis{1H-benzimidazole-5,2-diyl(2S,3aS,6aS)hexahydrocyclopenta[b]pyrrole-2,1(2H)-diyl[(1S)-2-oxo-1-(tetrahydro-2H-pyran-4-yl)ethane-2,1-diyl]})biscarbamate] | < 0.1
COC(=O)N[C@H](C(=O)N1[C@H](c2nc3cc([C@H]4CC[C@H](c5ccc6[nH]c([C@@H]7C[C@@H]8CCC[C@@H]8N7C(=O)[C@@H](NC(=O)OC)[C@@H](C)OC)nc6c5)N4c4cc(F)c(N5CCCCC5)c(F)c4)ccc3[nH]2)C[C@@H]2CCC[C@@H]21)[C@@H](C)OC [Example 3.33] | < 0.1
CCOC(=O)N[C@H](C(=O)N1CCC[C@H]1c1nc2cc([C@H]3CC[C@H](c4ccc5[nH]c([C@@H]6CCCN6C(=O)[C@@H](NC(=O)OCC)C(C)C)nc5c4)N3c3cc(F)c(N4CCC(c5ccccc5)CC4)c(F)c3)ccc2[nH]1)C(C)C [Example 3.34, ethyl {(2S)-1-[(2S)-2-{5-[(2R,5R)-1-[3,5-difluoro-4-(4-phenylpiperidin-1-yl)phenyl]-5-{2-[(2S)-1-{(2S)-2-[(ethoxycarbonyl)amino]-3-methylbutanoyl}pyrrolidin-2-yl]-1H-benzimidazol-5-yl}pyrrolidin-2-yl]-1H-benzimidazol-2-yl}pyrrolidin-1-yl]-3-methyl-1-oxobutan-2-yl}carbamate] | < 0.1
COC(=O)N[C@H](C(=O)N1CCC[C@H]1c1nc2cc([C@H]3CC[C@H](c4cc5nc([C@@H]6CCCN6C(=O)[C@@H](NC(=O)OC)C6CCOCC6)[nH]c5cc4F)N3c3cc(F)c(N4CCCCC4)c(F)c3)c(F)cc2[nH]1)C1CCOCC1 [Example 3.35, dimethyl ({(2R,5R)-1-[3,5-difluoro-4-(piperidin-1-yl)phenyl]pyrrolidine-2,5-diyl}bis {(6-fluoro-1H-benzimidazole-5,2-diyl)(2S)pyrrolidine-2,1-diyl[(1S)-2-oxo-1-(tetrahydro-2H-pyran-4-yl)ethane-2,1-diyl]})biscarbamate] | < 0.1
COC(=O)N[C@H](C(=O)N1CCC[C@H]1c1nc2cc([C@H]3CC[C@H](c4cc5nc([C@@H]6CCCN6C(=O)[C@@H](NC(=O)OC)[C@@H](C)OC)[nH]c5cc4F)N3c3cc(F)c(N4CCCCC4)c(F)c3)c(F)cc2[nH]1)[C@@H](C)OC [Example 3.36, methyl {(2S,3R)-1-[(2S)-2-{5-[(2R,5R)-1-[3,5-difluoro-4-(piperidin-1-yl)phenyl]-5-(6-fluoro-2-{(2S)-1-[N-(methoxycarbonyl)-O-methyl-L-threonyl]pyrrolidin-2-yl}-1H-benzimidazol-5-yl)pyrrolidin-2-yl]-6-fluoro-1H-benzimidazol-2-yl}pyrrolidin-1-yl]-3-methoxy-1-oxobutan-2-yl}carbamate] | < 0.1
COC(=O)N[C@H](C(=O)N1[C@H](c2nc3cc([C@H]4CC[C@H](c5cc6nc([C@@H]7C[C@@H]8CCC[C@@H]8N7C(=O)[C@@H](NC(=O)OC)C(C)C)[nH]c6cc5F)N4c4cc(F)c(N5CCCCC5)c(F)c4)c(F)cc3[nH]2)C[C@@H]2CCC[C@@H]21)C(C)C [Example 3.37, methyl {(2S)-1-[(2S,3aS,6aS)-2-{5-[(2R,5R)-1-[3,5-difluoro-4-(piperidin-1-yl)phenyl]-5-{6-fluoro-2-[(2S,3aS,6aS)-1-{(2S)-2-[(methoxycarbonyl)amino]-3-methylbutanoyl}octahydrocyclopenta[b]pyrrol-2-yl]-1H-benzimidazol-5-yl}pyrrolidin-2-yl]-6-fluoro-1H-benzimidazol-2-yl}hexahydrocyclopenta[b]pyrrol-1(2H)-yl]-3-methyl-1-oxobutan-2-yl}carbamate] | < 0.1
COC(=O)N[C@H](C(=O)N1[C@H](c2nc3cc([C@H]4CC[C@H](c5cc6nc([C@@H]7C[C@@H]8CCC[C@@H]8N7C(=O)[C@@H](NC(=O)OC)[C@@H](C)OC)[nH]c6cc5F)N4c4cc(F)c(N5CCCCC5)c(F)c4)c(F)cc3[nH]2)C[C@@H]2CCC[C@@H]21)[C@@H](C)OC [Example 3.38, methyl {(2S,3R)-1-[(2S,3aS,6aS)-2-{5-[(2R,5R)-1-[3,5-difluoro-4-(piperidin-1-yl)phenyl]-5-(6-fluoro-2-{(2S,3aS,6aS)-1-[N-(methoxycarbonyl)-O-methyl-L-threonyl]octahydrocyclopenta[b]pyrrol-2-yl}-1H-benzimidazol-5-yl)pyrrolidin-2-yl]-6-fluoro-1H-benzimidazol-2-yl}hexahydrocyclopenta[b]pyrrol-1(2H)-yl]-3-methoxy-1-oxobutan-2-yl}carbamate] | < 0.1
COC(=O)N[C@H](C(=O)N1CCC[C@H]1c1nc2cc([C@H]3CC[C@H](c4cc5nc([C@@H]6CCCN6C(=O)[C@@H](NC(=O)OC)C6CCCC6)[nH]c5cc4F)N3c3cc(F)c(N4CCCCC4)c(F)c3)c(F)cc2[nH]1)C1CCCC1 [Example 3.39, dimethyl ({(2R,5R)-1-[3,5-difluoro-4-(piperidin-1-yl)phenyl]pyrrolidine-2,5-diyl}bis{(6-fluoro-1H-benzimidazole-5,2-diyl)(2S)pyrrolidine-2,1-diyl[(1S)-1-cyclopentyl-2-oxoethane-2,1-diyl]})biscarbamate] | < 0.1
COC(=O)N[C@H](C(=O)N1[C@H](c2nc3cc([C@H]4CC[C@H](c5cc6nc([C@@H]7C[C@@H]8CCC[C@@H]8N7C(=O)[C@@H](NC(=O)OC)C7CCCC7)[nH]c6cc5F)N4c4cc(F)c(N5CCCCC5)c(F)c4)c(F)cc3[nH]2)C[C@@H]2CCC[C@@H]21)C1CCCC1 [Example 3.40, dimethyl ({(2R,5R)-1-[3,5-difluoro-4-(piperidin-1-yl)phenyl]pyrrolidine-2,5-diyl}bis{(6-fluoro-1H-benzimidazole-5,2-diyl)(2S,3aS,6aS)hexahydrocyclopenta[b]pyrrole-2,1(2H)-diyl[(1S)-1-cyclopentyl-2-oxoethane-2,1-diyl]})biscarbamate] | < 0.1
COC(=O)N[C@H](C(=O)N1[C@H](c2nc3cc([C@H]4CC[C@H](c5cc6nc([C@@H]7C[C@@H]8CCC[C@@H]8N7C(=O)[C@@H](NC(=O)OC)C7CCOCC7)[nH]c6cc5F)N4c4cc(F)c(N5CCCCC5)c(F)c4)c(F)cc3[nH]2)C[C@@H]2CCC[C@@H]21)C1CCOCC1 [Example 3.41, dimethyl ({(2R,5R)-1-[3,5-difluoro-4-(piperidin-1-yl)phenyl]pyrrolidine-2,5-diyl}bis{(6-fluoro-1H-benzimidazole-5,2-diyl)(2S,3aS,6aS)hexahydrocyclopenta[b]pyrrole-2,1(2H)-diyl[(1S)-2-oxo-1-(tetrahydro-2H-pyran-4-yl)ethane-2,1-diyl]})biscarbamate] | < 0.1
